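These data come from cells grown in 96-well plates and exposed to compound for 48 hours at five concentrations. GI50 is the concentration that inhibits growth by half.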 Activity calls are given as the source filed them. Rule as the data show it: active = GI50 up to about 1.1 µM and inactive = higher.
Key:
Test in all cases: NCI-60 cell line screen, 48 h
[1] = tested on: 786-0
[2] = tested on: BT-549
[3] = tested on: CAKI-1
[4] = tested on: COLO 205
[5] = tested on: HCT-15
[6] = tested on: HT-29
[7] = tested on: M14
[8] = tested on: MDA-MB-231
[9] = tested on: MDA-N
[10] = tested on: MOLT-4
[11] = tested on: NCI-H460
[12] = tested on: NCI-H522
[13] = tested on: OVCAR-8
[14] = tested on: PC-3
[15] = tested on: SK-MEL-28
[16] = tested on: SK-MEL-2
[17] = tested on: SK-MEL-5
[18] = tested on: SNB-75
[19] = tested on: SW-620
[20] = tested on: UACC-62

| SMILES | GI50 [1] | GI50 [2] | GI50 [3] | GI50 [4] | GI50 [5] | GI50 [6] | GI50 [7] | GI50 [8] | GI50 [9] | GI50 [10] | GI50 [11] | GI50 [12] | GI50 [13] | GI50 [14] | GI50 [15] | GI50 [16] | GI50 [17] | GI50 [18] | GI50 [19] | GI50 [20] |
| --- | --- | --- | --- | --- | --- | --- | --- | --- | --- | --- | --- | --- | --- | --- | --- | --- | --- | --- | --- | --- |
| c1ccc(C2=Nn3c(CCCCCCCCc4nnc5n4N=C(c4ccccc4)CS5)nnc3SC2)cc1 | 14.8 µM (inactive) | > 57.7 µM (inactive) | 41.2 µM (inactive) | > 100 µM (inactive) | > 100 µM | 19.6 µM (inactive) | 37.6 µM (inactive) | 22.9 µM (inactive) | > 100 µM (inactive) | 32.4 µM (inactive) | > 100 µM (inactive) | 40.2 µM (inactive) | > 46.5 µM (inactive) | > 100 µM (inactive) | > 100 µM (inactive) | 32.1 µM (inactive) | > 100 µM (inactive) | 14.5 µM (inactive) | > 100 µM (inactive) | 46.8 µM (inactive) |
| COc1cccc(CCn2c(N)c(-c3ccccc3)c3ccc([N+](=O)[O-])cc3c2=O)c1 | 6.25 µM (inactive) | 1.61 µM (inactive) | 6.3 µM (inactive) | 2.16 µM (inactive) | 7.08 µM | 10.6 µM (inactive) | 11.2 µM (inactive) | 8.45 µM (inactive) | 17.5 µM (inactive) | 6.7 µM (inactive) | 13.6 µM (inactive) | 2.93 µM (inactive) | 1.98 µM (inactive) | 9.53 µM (inactive) | 17.5 µM (inactive) | 16.7 µM (inactive) | 5.93 µM (inactive) | 2.99 µM (inactive) | 25.7 µM (inactive) | 11.9 µM (inactive) |
| CC(=O)N(O)[C@@H]1CC[C@H](n2cnc3c(N)ncnc32)C1 | > 100 µM (inactive) | > 100 µM (inactive) | > 100 µM (inactive) | > 100 µM (inactive) | > 100 µM | – | > 100 µM (inactive) | > 100 µM (inactive) | > 100 µM (inactive) | > 100 µM (inactive) | > 100 µM (inactive) | > 100 µM (inactive) | > 100 µM (inactive) | > 100 µM (inactive) | > 100 µM (inactive) | > 100 µM (inactive) | > 100 µM (inactive) | > 100 µM (inactive) | > 100 µM (inactive) | > 100 µM (inactive) |
| COc1cccc2c1-c1ccccc1[C@H](Nc1ccccc1)[C@@]2(C)O | 5.45 µM (inactive) | 8.41 µM (inactive) | 4.1 µM (inactive) | 3.1 µM (inactive) | 4.3 µM | 3.78 µM (inactive) | 3.86 µM (inactive) | 10.3 µM (inactive) | 1.71 µM (inactive) | 7.28 µM (inactive) | 3.91 µM (inactive) | 2.37 µM (inactive) | 10.4 µM (inactive) | 6.21 µM (inactive) | 11.3 µM (inactive) | 6.12 µM (inactive) | 3.62 µM (inactive) | 2.28 µM (inactive) | 4.35 µM (inactive) | 9.12 µM (inactive) |
| CCCCOC(=O)C(=O)C(CC(CC)C(=O)c1ccccc1)C(=O)C=C(C)C (stereo unspecified) | > 100 µM (inactive) | > 100 µM (inactive) | > 100 µM (inactive) | > 100 µM (inactive) | > 100 µM | – | > 100 µM (inactive) | > 100 µM (inactive) | > 100 µM (inactive) | > 100 µM (inactive) | > 100 µM (inactive) | > 100 µM (inactive) | > 100 µM (inactive) | > 100 µM (inactive) | > 100 µM (inactive) | > 100 µM (inactive) | > 100 µM (inactive) | > 100 µM (inactive) | > 100 µM (inactive) | > 100 µM (inactive) |
| Cc1nc2ccc(Cl)cc2c(-n2ccnc2)c1CCn1ccnc1 | 1.69 µM (inactive) | 19.8 µM (inactive) | 63.1 µM (inactive) | 18 µM (inactive) | 22.7 µM | 17.3 µM (inactive) | 27.8 µM (inactive) | 17.8 µM (inactive) | 25.5 µM (inactive) | – | 23.2 µM (inactive) | 22.4 µM (inactive) | 1.75 µM (inactive) | 22.1 µM (inactive) | 29.9 µM (inactive) | 19.2 µM (inactive) | 20.7 µM (inactive) | 20 µM (inactive) | 39.4 µM (inactive) | 16.3 µM (inactive) |
| COc1c(C)c(C/C=C(\C)CC/C=C(\C)CC/C=C(\C)CCC=C(C)C)c(OC)c(OC)c1OC | > 100 µM (inactive) | > 100 µM (inactive) | > 100 µM (inactive) | > 100 µM (inactive) | > 100 µM | > 100 µM (inactive) | > 100 µM (inactive) | > 100 µM (inactive) | > 100 µM (inactive) | > 100 µM (inactive) | > 100 µM (inactive) | > 100 µM (inactive) | > 100 µM (inactive) | > 100 µM (inactive) | – | > 100 µM (inactive) | > 100 µM (inactive) | > 100 µM (inactive) | > 100 µM (inactive) | > 100 µM (inactive) |

From ChEMBL document CHEMBL1201862, “PubChem BioAssay data set” (2004)
